Data as given in ChEMBL document CHEMBL2040706, “Inhibition of hepatitis C virus NS3 helicase by manoalide” (J Nat Prod, 2012).
Activity calls are given as the source filed them.

Assays:
Hepacivirus hominis [1] = assay: Inhibition of HCV NS3 RNA helicase activity using […] as substrate measured every 5 secs for 5 mins and every 30 secs up to 30 mins by photoinduced electron transfer-based fluorescence assay
[2] = Inhibition of HCV NS3 RNA helicase activity using [32Pgamma]-labelled partial duplex RNA as substrate incubated for 15 mins prior to ATP addition measured after 30 mins by PAGE analysis; design: species or system Hepacivirus hominis
Hepacivirus hominis [3] = assay: (§1) Inhibition of HCV NS3 ATPase activity using [32gamma]ATP as substrate after 30 mins by thin layer chromatography analysis in the presence of poly(U)RNA
[4] = as §1; design: species or system Hepacivirus hominis
Hepacivirus hominis [5] = assay: Inhibition of HCV NS3 ATPase activity using [32Pgamma]ATP as substrate at 0.1 mM after 60 mins by thin layer chromatography analysis in the absence of poly(U)RNA
Hepacivirus hominis [6] = assay: Binding affinity to HCV NS3 helicase assessed as increase in fluorescence after 15 mins by isothermal denaturation assay
Hepacivirus hominis [7] = assay: Inhibition of HCV NS3 binding to human 5'-[32Pgamma]-labelled lethal-7 microRNA precursor ssRNA at 0.1 mM after 15 mins by PAGE analysis
Hepacivirus hominis [8] = assay: Noncompetitive inhibition of HCV NS3 ATPase activity using 1 to 8 mM [32gamma]ATP at 0.1 mM by Lineweaver-Burk plot analysis
[9] = target: T1, ATP-dependent DNA/RNA helicase DHX36 (Homo sapiens) (UniProt Q9H2U1); assay: Inhibition of human DHX36/RHAU ATPase activity using [32Pgamma]ATP as substrate for 30 mins in the presence of poly(U)RNA
T1 sequence (whole entry): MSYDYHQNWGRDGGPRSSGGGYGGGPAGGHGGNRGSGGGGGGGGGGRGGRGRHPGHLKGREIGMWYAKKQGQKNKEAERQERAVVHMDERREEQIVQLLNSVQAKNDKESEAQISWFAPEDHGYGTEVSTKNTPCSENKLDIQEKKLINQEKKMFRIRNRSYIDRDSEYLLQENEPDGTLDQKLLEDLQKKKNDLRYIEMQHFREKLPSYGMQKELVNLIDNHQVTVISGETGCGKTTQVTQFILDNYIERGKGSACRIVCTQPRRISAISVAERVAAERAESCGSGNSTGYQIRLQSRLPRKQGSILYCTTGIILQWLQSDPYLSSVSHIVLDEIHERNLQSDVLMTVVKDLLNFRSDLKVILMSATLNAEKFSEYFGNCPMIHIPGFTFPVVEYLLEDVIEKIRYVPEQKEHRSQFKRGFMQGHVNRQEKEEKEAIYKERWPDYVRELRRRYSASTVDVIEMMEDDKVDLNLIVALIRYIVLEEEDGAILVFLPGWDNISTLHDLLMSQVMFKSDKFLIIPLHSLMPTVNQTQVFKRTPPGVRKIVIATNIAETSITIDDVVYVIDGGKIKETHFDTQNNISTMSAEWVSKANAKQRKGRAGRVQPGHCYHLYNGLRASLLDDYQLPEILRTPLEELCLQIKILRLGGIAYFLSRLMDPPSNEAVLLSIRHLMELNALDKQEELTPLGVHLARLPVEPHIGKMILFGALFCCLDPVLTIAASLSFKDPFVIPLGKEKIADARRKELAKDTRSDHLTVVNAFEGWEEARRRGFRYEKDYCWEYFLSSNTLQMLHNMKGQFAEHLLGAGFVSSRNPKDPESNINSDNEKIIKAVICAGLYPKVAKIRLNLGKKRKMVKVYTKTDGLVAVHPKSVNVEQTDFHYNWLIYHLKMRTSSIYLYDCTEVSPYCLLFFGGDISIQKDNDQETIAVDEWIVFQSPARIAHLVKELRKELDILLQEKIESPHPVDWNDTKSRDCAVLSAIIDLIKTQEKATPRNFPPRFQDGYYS

CC1=C(CC/C(C)=C/CCC2=CC[C@H](C3=CC(=O)O[C@H]3O)O[C@H]2O)C(C)(C)CCC1 [MANOALIDE]
active: inhibition (Hepacivirus hominis [1]) | inhibition (Hepacivirus hominis [3]) Dose-dependent effect | inhibition (Hepacivirus hominis [5]) | Activity (Hepacivirus hominis [6]) Dose-dependent effect | inhibition (Hepacivirus hominis [7]) | inhibition (Hepacivirus hominis [8]) | inhibition [9]
70 µM: IC50 [4]
15 µM: IC50 [2]
